# Measured values published in article PMC5939068 (Proceedings of the National Academy of Sciences of the …, 2018).
# Molecular target: 52SFK (HAdV-52 short fiber knob) (human adenovirus 52, UniProt A0MK70)
# Assay: SPR with immobilized knob
# Format: binding
# Settings: oligoSia in solution
smiles,measurement,value
"CC(=O)N[C@H]1[C@H]([C@H](O)[C@H](O)CO)O[C@@](O[C@H](CO)[C@@H](O)[C@@H]2OC(O)(C(=O)O)C[C@H](O)[C@H]2NC(C)=O)(C(=O)O)C[C@@H]1O (stereo partly shown) [DP2, disialic acid]",SPR with immobilized knob,the biggest increase in affinity was shown between DP2 and DP3
